The values that follow come from patent US9221838B2, “Inhibitors of AKT activity” (ALMAC DISCOVERY LIMITED, priority 2009, dated 2015).

What all share (type): biochemical
The target in one experiment is T1, AKT2 (Homo sapiens, UniProt P31751).
T1 construct: purchased SignalChem
Kind of experiment: AKT Kinase Assay (IMAP fluorescent polarisation) vs AKT2. The method in brief: (§1)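 Phosphorylation of FAM-Crosstide detected by IMAP binding and fluorescence polarisation (485/528 nm), with IC50 fitted from % inhibition versus vehicle. Compound was incubated 45 min with enzyme, then reacted 1 h at room temperature with ATP and peptide in Tris/MgCl2/DTT buffer. Dose response had fourteen half-log points.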

In a further experiment the target is T2, AKT1 (Homo sapiens, UniProt P31749).
T2 construct: purchased SignalChem
Kind of experiment: AKT Kinase Assay (IMAP fluorescent polarisation) vs AKT1. The method, boiled down:
as §1

In another experiment the target is T3, AKT3 (Homo sapiens, UniProt Q9Y243).
T3 construct: purchased SignalChem
Description: AKT Kinase Assay (IMAP fluorescent polarisation) vs AKT3. The method in brief:
as §1

T3 sequence (Q9Y243 whole entry): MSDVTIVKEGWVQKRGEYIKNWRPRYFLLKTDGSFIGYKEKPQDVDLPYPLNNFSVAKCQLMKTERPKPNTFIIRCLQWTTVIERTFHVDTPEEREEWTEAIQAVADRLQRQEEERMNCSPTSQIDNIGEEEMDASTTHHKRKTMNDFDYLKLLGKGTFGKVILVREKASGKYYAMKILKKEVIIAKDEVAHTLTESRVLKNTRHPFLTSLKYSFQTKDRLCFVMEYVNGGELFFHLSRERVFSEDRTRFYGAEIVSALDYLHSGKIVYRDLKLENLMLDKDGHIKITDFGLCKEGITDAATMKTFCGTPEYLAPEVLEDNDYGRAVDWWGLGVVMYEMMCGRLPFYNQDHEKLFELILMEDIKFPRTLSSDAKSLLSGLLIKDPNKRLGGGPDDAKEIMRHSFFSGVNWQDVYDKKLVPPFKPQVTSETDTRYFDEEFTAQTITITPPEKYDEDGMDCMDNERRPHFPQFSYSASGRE
T1 sequence (P31751 whole entry): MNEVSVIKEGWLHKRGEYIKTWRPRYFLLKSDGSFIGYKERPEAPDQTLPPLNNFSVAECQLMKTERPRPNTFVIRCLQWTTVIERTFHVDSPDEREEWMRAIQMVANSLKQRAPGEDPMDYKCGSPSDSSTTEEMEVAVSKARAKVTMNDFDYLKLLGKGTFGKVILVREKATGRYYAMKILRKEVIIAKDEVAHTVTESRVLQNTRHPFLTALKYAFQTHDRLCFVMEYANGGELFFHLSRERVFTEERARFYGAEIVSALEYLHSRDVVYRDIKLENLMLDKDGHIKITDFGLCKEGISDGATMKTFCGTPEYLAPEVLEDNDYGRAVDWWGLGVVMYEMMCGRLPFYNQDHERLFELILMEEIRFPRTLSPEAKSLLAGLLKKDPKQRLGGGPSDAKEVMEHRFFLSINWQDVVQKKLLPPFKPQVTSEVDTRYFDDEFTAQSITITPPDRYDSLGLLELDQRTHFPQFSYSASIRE
T2 sequence (P31749 whole entry): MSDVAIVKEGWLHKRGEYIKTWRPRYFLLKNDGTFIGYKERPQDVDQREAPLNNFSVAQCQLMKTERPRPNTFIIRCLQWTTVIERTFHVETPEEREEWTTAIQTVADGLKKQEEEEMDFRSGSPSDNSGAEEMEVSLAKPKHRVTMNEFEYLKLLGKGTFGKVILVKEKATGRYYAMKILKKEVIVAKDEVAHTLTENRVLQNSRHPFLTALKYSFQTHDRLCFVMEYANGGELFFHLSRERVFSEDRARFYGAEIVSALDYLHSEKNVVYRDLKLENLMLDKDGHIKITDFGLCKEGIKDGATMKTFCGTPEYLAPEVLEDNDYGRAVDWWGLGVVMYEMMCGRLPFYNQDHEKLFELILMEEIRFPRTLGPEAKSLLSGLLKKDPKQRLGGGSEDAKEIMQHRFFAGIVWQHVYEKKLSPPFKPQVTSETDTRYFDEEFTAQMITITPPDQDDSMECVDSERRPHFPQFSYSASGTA

As to `CCNC(=O)N1CCOc2nc(-c3ccc(C4(N)CCC4)cc3)c(-c3ccccc3)cc21` [Example 88, 6-(4-(1-aminocyclobutyl)phenyl)-N-ethyl-7-phenyl-2,3-dihydro-1H-pyrido[2,3-b][1,4]oxazine-1-carboxamide], the 50% inhibitory concentration (IC50) on AKT2, at AKT1 and on AKT3 was greater than 10 µM each time.

As to `CCN1C(=O)COc2nc(-c3ccc(CN)cc3)c(-c3ccccc3)cc21` [Example 151, 6-(4-(Aminomethyl)phenyl)-1-ethyl-7-phenyl-1H-pyrido[2,3-b][1,4]oxazin-2(3H)-one], the values for the half-maximal inhibitory concentration (IC50) on AKT2, on AKT1 and at AKT3 were 0.1 to 1 µM, 1 to 10 µM and greater than 10 µM, respectively.

As to `CC(=O)N1CCOc2nc(-c3ccc(C4(N)CCC4)cc3)c(-c3ccccc3)cc21` [Example 41, 1-(6-(4-(1-aminocyclobutyl)phenyl)-7-phenyl-2,3-dihydro-1H-pyrido[2,3-b][1,4]oxazin-1-yl)ethanone], the IC50 on AKT2 was 0.1 to 1 µM; on AKT1, 1 to 10 µM; on AKT3, greater than 10 µM.

`NC1(c2ccc(-c3nc4c(cc3-c3ccccc3)C(=O)COC4)cc2)CCC1` [Example 127, 2-(4-(1-aminocyclobutyl)phenyl)-3-phenyl-6,8-dihydro-5H-pyrano[3,4-b]pyridin-5-one]: the IC50 was greater than 10 µM at AKT2, 1 to 10 µM at AKT1 and greater than 10 µM at AKT3.

For `CC(C#N)N1C(=O)COc2nc(-c3ccc(C4(N)CCC4)cc3)c(-c3ccccc3)cc21` (stereo not drawn) [Example 54, 2-(6-(4-(1-aminocyclobutyl)phenyl)-2-oxo-7-phenyl-2,3-dihydro-1H-pyrido[2,3-b][1,4]oxazin-1-yl)propanenitrile], the concentration for half-maximal inhibition (IC50) at AKT2 fell in the range of 0.1 to 1 µM; at AKT1 it was 0.1 to 1 µM; at AKT3, 1 to 10 µM.

`Cn1cc(N2C(=O)COc3nc(-c4ccc(C5(N)CCC5)cc4)c(-c4ccccc4)cc32)cn1` [Example 83, 6-(4-(1-aminocyclobutyl)phenyl)-1-(1-methyl-1H-pyrazol-4-yl)-7-phenyl-1H-pyrido[2,3-b][1,4]oxazin-2(3H)-one]: the concentration for half-maximal inhibition (IC50) at AKT2, at AKT1 and on AKT3 was 1 to 10 µM each time.

`CC1Oc2nc(-c3ccc(C4(N)CCC4)cc3)c(-c3ccccc3)cc2N(CC#N)C1=O` (stereo not drawn) [Example 81, 2-(6-(4-(1-aminocyclobutyl)phenyl)-3-methyl-2-oxo-7-phenyl-2,3-dihydro-1H-pyrido[2,3-b][1,4]oxazin-1-yl)acetonitrile]: the half-maximal inhibitory concentration (IC50) is 0.1 to 1 µM on AKT2, no more than 0.1 µM on AKT1 and 1 to 10 µM at AKT3.

As to `NC1(c2ccc(-c3nc4c(cc3-c3ccccc3)-n3c(nnc3CC(F)(F)F)CO4)cc2)CCC1` [Example 118, 1-(4-(8-phenyl-1-(2,2,2-trifluoroethyl)-4H-pyrido[2,3-b][1,2,4]triazolo[4,3-d][1,4]oxazin-7-yl)phenyl)cyclobutanamine], the half-inhibitory concentration (IC50) at AKT2 was in the range of 1 to 10 µM; at AKT1, 0.1 to 1 µM; at AKT3 it was 1 to 10 µM.

With `CN1C(=O)COc2nc(-c3ccc(C4(N)CCC4)cc3)c(CC3CC3)cc21` [Example 133, 6-(4-(1-aminocyclobutyl)phenyl)-7-(cyclopropylmethyl)-1-methyl-1H-pyrido[2,3-b][1,4]oxazin-2(3H)-one], the concentration for half-maximal inhibition (IC50) at AKT2 was greater than 10 µM; on AKT1, 1 to 10 µM; on AKT3, greater than 10 µM.

`NC1(c2ccc(-c3nc4c(cc3-c3ccccc3)-n3c(nnc3-c3ccncc3)CO4)cc2)CCC1` [Example 123, 1-(4-(8-phenyl-1-(pyridin-4-yl)-4H-pyrido[2,3-b][1,2,4]triazolo[4,3-d][1,4]oxazin-7-yl)phenyl)cyclobutanamine]: the values for the IC50 on AKT2, on AKT1 and on AKT3 were 1 to 10 µM, no more than 0.1 µM and 1 to 10 µM, respectively.

For `CCOC(=O)CN1C(=O)COc2nc(-c3ccc(C4(N)CCC4)cc3)c(-c3ccccc3)cc21` [Example 49, ethyl 2-(6-(4-(1-aminocyclobutyl)phenyl)-2-oxo-7-phenyl-2,3-dihydro-1H-pyrido[2,3-b][1,4]oxazin-1-yl)acetate], the concentration for half-maximal inhibition (IC50) on AKT2, at AKT1 and at AKT3 was 0.1 to 1 µM in each case.

With `CCN1C(=O)COc2nc(-c3ccc(C4(N)CCC4)cc3)c(-c3ccccc3)cc21` [Example 52, 6-(4-(1-aminocyclobutyl)phenyl)-1-ethyl-7-phenyl-1H-pyrido[2,3-b][1,4]oxazin-2(3H)-one], the figures for the 50% inhibitory concentration (IC50) at AKT2, on AKT1 and on AKT3 were no more than 0.1 µM, 0.1 to 1 µM and 1 to 10 µM, respectively.

`N#CCN1C(=O)C(CCO)Oc2nc(-c3ccc(C4(N)CCC4)cc3)c(-c3ccccc3)cc21` (stereo not drawn) [Example 78]: the IC50 at AKT2 is 0.1 to 1 µM; on AKT1, 0.1 to 1 µM; at AKT3 it was greater than 10 µM.

For the compound `NC1(c2ccc(-c3nc4c(cc3-c3ccccc3)N(CC(F)(F)F)C(=O)CO4)cc2)CCC1` [Example 60, 6-(4-(1-aminocyclobutyl)phenyl)-7-phenyl-1-(2,2,2-trifluoroethyl)-1H-pyrido[2,3-b][1,4]oxazin-2(3H)-one], the IC50 at AKT2 is no more than 0.1 µM; at AKT1 it was 0.1 to 1 µM; at AKT3, 1 to 10 µM.

Regarding `N#CCCCN1C(=O)COc2nc(-c3ccc(C4(N)CCC4)cc3)c(-c3ccccc3)cc21` [Example 64, 4-(6-(4-(1-aminocyclobutyl)phenyl)-2-oxo-7-phenyl-2,3-dihydro-1H-pyrido[2,3-b][1,4]oxazin-1-yl)butanenitrile], the IC50 fell in the range of 0.1 to 1 µM at AKT2, 0.1 to 1 µM on AKT1 and 1 to 10 µM on AKT3.

`Cn1cc2c(n1)-c1cc(-c3ccccc3)c(-c3ccc(C4(N)CCC4)cc3)nc1CC2` [Example 5, 1-(4-(2-methyl-8-phenyl-4,5-dihydro-2H-pyrazolo[3,4-f]quinolin-7-yl)phenyl)cyclobutanamine]: the results for the 50% inhibitory concentration (IC50) at AKT2, at AKT1 and at AKT3 were 1 to 10 µM, 0.1 to 1 µM and greater than 10 µM, respectively.

`CN1C(=O)COc2nc(-c3ccc([C@]4(N)C[C@@H](O)C4)cc3)c(-c3ccccc3)cc21` [Example 97, 6-(4-((1s,3s)-1-amino-3-hydroxycyclobutyl)phenyl)-1-methyl-7-phenyl-1H-pyrido[2,3-b][1,4]oxazin-2(3H)-one]: the values for the IC50 at AKT2, on AKT1 and on AKT3 were 1 to 10 µM, 0.1 to 1 µM and 1 to 10 µM, respectively.

Consider `CN1C(=O)COc2nc(-c3ccc([C@]4(N)C[C@@](C)(O)C4)cc3)c(-c3ccccc3)cc21` [Example 134, 6-(4((1s,3s)-1-amino-3-hydroxy-3-methylcyclobutyl)phenyl)-1-methyl-7-phenyl-1H-pyrido[2,3-b][1,4]oxazin-2(3H)-one], for which the figures for the IC50 at AKT2, on AKT1 and on AKT3 were 1 to 10 µM, 0.1 to 1 µM and greater than 10 µM, respectively.

With `N#CCn1nc2n(c1=O)-c1cc(-c3ccccc3)c(-c3ccc(C4(N)CCC4)cc3)nc1OC2` [Example 101, 2-(7-(4-(1-aminocyclobutyl)phenyl)-1-oxo-8-phenyl-1H-pyrido[2,3-b][1,2,4]triazolo[4,3-d][1,4]oxazin-2(4H)-yl)acetonitrile], the IC50 at AKT2 lay in the range of 0.1 to 1 µM; at AKT1, 0.1 to 1 µM; at AKT3, 1 to 10 µM.

In the case of `NC1(c2ccc(-c3nc4c(cc3-c3ccccc3)N(CC3CCC3)C(=O)CO4)cc2)CCC1` [Example 48, 6-(4-(1-aminocyclobutyl)phenyl)-1-(cyclobutylmethyl)-7-phenyl-1H-pyrido[2,3-b][1,4]oxazin-2(3H)-one], the half-maximal inhibitory concentration (IC50) was no more than 0.1 µM at AKT2, 0.1 to 1 µM on AKT1 and 0.1 to 1 µM at AKT3.

Turning to `CC12CCc3nc(-c4ccc(C5(N)CCC5)cc4)c(-c4ccccc4)cc3C1=NNC2=O` (stereo not drawn) [Example 8, 7-(4-(1-aminocyclobutyl)phenyl)-3a-methyl-8-phenyl-4,5-dihydro-2H-pyrazolo[3,4-f]quinolin-3(3aH)-one], the figures for the IC50 on AKT2, at AKT1 and at AKT3 were 0.1 to 1 µM, 0.1 to 1 µM and greater than 10 µM, respectively.

For the compound `NC1(c2ccc(-c3nc4c(cc3-c3ccccc3)N(C3CCOCC3)C(=O)CO4)cc2)CCC1` [Example 65, 6-(4-(1-aminocyclobutyl)phenyl)-7-phenyl-1-(tetrahydro-2H-pyran-4-yl)-1H-pyrido[2,3-b][1,4]oxazin-2(3H)-one], the half-maximal inhibitory concentration (IC50) on AKT2 is 1 to 10 µM; on AKT1, 1 to 10 µM; on AKT3 it was greater than 10 µM.

`CN1CC(=O)Nc2cc(-c3ccccc3)c(-c3ccc(C4(N)CCC4)cc3)nc21` [Example 72, 6-(4-(1-aminocyclobutyl)phenyl)-4-methyl-7-phenyl-3,4-dihydropyrido[2,3-b]pyrazin-2(1H)-one]: the IC50 on AKT2 was 1 to 10 µM; on AKT1, 0.1 to 1 µM; at AKT3, greater than 10 µM.

Turning to `CCN1C(=O)COc2nc(-c3ccc([C@]4(N)C[C@](C)(O)C4)cc3)c(-c3ccccc3)cc21` [Example 143, 6-(4-((1r,3r)-1-amino-3-hydroxy-3-methylcyclobutyl)phenyl)-1-ethyl-7-phenyl-1H-pyrido[2,3-b][1,4]oxazin-2(3H)-one], the IC50 is no more than 0.1 µM at AKT2, no more than 0.1 µM on AKT1 and 0.1 to 1 µM on AKT3.

For `NC1(c2ccc(-c3nc4c(cc3-c3ccccc3)/C(=N/O)CCC4)cc2)CCC1` [Example 2, 2-(4-(1-aminocyclobutyl)phenyl)-3-phenyl-7,13-dihydroquinolin-5(6H)-one oxime], the figures for the IC50 on AKT2, on AKT1 and on AKT3 were 1 to 10 µM, 0.1 to 1 µM and greater than 10 µM, respectively.

Take `CC(C)CN1C(=O)COc2nc(-c3ccc(C4(N)CCC4)cc3)c(-c3ccccc3)cc21` [Example 102, 6-(4-(1-aminocyclobutyl)phenyl)-1-isobutyl-7-phenyl-1H-pyrido[2,3-b][1,4]oxazin-2(3H)-one]: the figures for the IC50 at AKT2, on AKT1 and on AKT3 were no more than 0.1 µM, 0.1 to 1 µM and 1 to 10 µM, respectively.
